Measured values as given in patent US20080113900A1, “Pharmaceutical compositions and therapeutic applications for the use of a synthetic vitamin B12 derivative, glutathionylcobalamin” (priority 2006, published 2008).
Values joined by “and” are separate entries in the source; they are usually repeats but may differ in a detail not shown here. Equal entries are not always repeated.

What was measured:
[1] = Decomposition in PBS at 37° C. monitored by UV/Vis spectrophotometry; type: physicochemical
Description: The decomposition of GSCbl, NACCbl, and HcyCbl in PBS at 37° C. was monitored by UV/Vis spectrophotometry.

SK-HEP-1 cells = experiment: Protection of endothelial cells from homocysteine-induced cell death (MTS assay); type: cell-based, human; conditions: for Absorbance at 490 nm: single replicates Y1-Y6
[2] = Conc. Hcy 0.000, NACCbl 30 μM, NAC 75 μM, n = 6
[3] = Conc. Hcy 1.780, NACCbl 30 μM, NAC 75 μM, n = 6
[4] = Conc. Hcy 3.125, NACCbl 30 μM, NAC 75 μM, n = 6
[5] = Conc. Hcy 6.250, NACCbl 30 μM, NAC 75 μM, n = 6
[6] = Conc. Hcy 12.500, NACCbl 30 μM, NAC 75 μM, n = 6
[7] = Conc. Hcy 25.000, NACCbl 30 μM, NAC 75 μM, n = 6
[8] = Conc. Hcy 50.000, NACCbl 30 μM, NAC 75 μM, n = 6
[9] = Conc. Hcy 100.000, NACCbl 30 μM, NAC 75 μM, n = 6
[10] = Conc. Hcy 200.000, NACCbl 30 μM, NAC 75 μM, n = 6

CC(=O)NC(C[S-])C(=O)O.CC1=C2N=C(C=C3N=C(C(C)=C4[N-]C(C(CC(N)=O)C4(C)CCC(=O)NCC(C)OP(=O)([O-])OC4C(CO)OC(n5cnc6cc(C)c(C)cc65)C4O)C4(C)N=C1C(CCC(N)=O)C4(C)CC(N)=O)C(CCC(N)=O)C3(C)C)C(CCC(N)=O)C2(C)CC(N)=O.[Co+3] [NACCbl, N-acetyl-L-cysteinylcobalamin]
t1/2 [1]: No decomposition within 20 hours
Pre-incubation concentration that protected cells from homocysteine-induced cell death (SK-HEP-1 cells; 2 hours, then 30 μM homocysteine 24 hours): ≥ 2.0 µM
Normalized Data Log 2, Mean (SK-HEP-1 cells; [2]): 94.824
Normalized Data Log 10, Mean (SK-HEP-1 cells; [2]): 100.000
Normalized Data Log 2, Mean (SK-HEP-1 cells; [3]): 91.341
Normalized Data Log 10, Mean (SK-HEP-1 cells; [3]): 96.489
Normalized Data Log 2, Mean (SK-HEP-1 cells; [4]): 80.699
Normalized Data Log 10, Mean (SK-HEP-1 cells; [4]): 85.763
Normalized Data Log 2, Mean (SK-HEP-1 cells; [5]): 75.524
Normalized Data Log 10, Mean (SK-HEP-1 cells; [5]): 80.546
Normalized Data Log 2, Mean (SK-HEP-1 cells; [6]): 70.387
Normalized Data Log 10, Mean (SK-HEP-1 cells; [6]): 75.368
Normalized Data Log 2, Mean (SK-HEP-1 cells; [7]): 62.926
Normalized Data Log 10, Mean (SK-HEP-1 cells; [7]): 67.848
Normalized Data Log 2, Mean (SK-HEP-1 cells; [8]): 56.302
Normalized Data Log 10, Mean (SK-HEP-1 cells; [8]): 61.171
Normalized Data Log 2, Mean (SK-HEP-1 cells; [9]): 52.298
Normalized Data Log 10, Mean (SK-HEP-1 cells; [9]): 57.135
Normalized Data Log 2, Mean (SK-HEP-1 cells; [10]): 40.781
Normalized Data Log 10, Mean (SK-HEP-1 cells; [10]): 45.526
Absorbance at 490 nm (SK-HEP-1 cells; Conc. of Hcy 0.000, NACCbl 30 μM, NAC 75 μM): 2.885 and 2.698 and 2.821 and 2.771 and 2.691 and 2.700
Absorbance at 490 nm (SK-HEP-1 cells; Conc. of Hcy 1.780, NACCbl 30 μM, NAC 75 μM): 2.647 and 2.551 and 2.789 and 2.890 and 2.549 and 2.611
Absorbance at 490 nm (SK-HEP-1 cells; Conc. of Hcy 3.125, NACCbl 30 μM): 2.453 and 2.338 and 2.360 and 2.317 and 2.418 and 2.535
Absorbance at 490 nm (SK-HEP-1 cells; Conc. of Hcy 6.250, NACCbl 30 μM, NAC 75 μM): 2.410 and 2.400 and 2.322 and 2.201 and 2.115 and 2.187
Absorbance at 490 nm (SK-HEP-1 cells; Conc. of Hcy 12.500, NACCbl 30 μM, NAC 75 μM): 2.210 and 2.110 and 2.045 and 2.065 and 2.101 and 2.324
Absorbance at 490 nm (SK-HEP-1 cells; Conc. of Hcy 25.000, NACCbl 30 μM, NAC 75 μM): 2.100 and 2.190 and 1.879 and 1.937 and 1.779 and 1.837
Absorbance at 490 nm (SK-HEP-1 cells; Conc. of Hcy 50.000, NACCbl 30 μM, NAC 75 μM): 1.678 and 1.832 and 1.881 and 1.730 and 1.740 and 1.855
Absorbance at 490 nm (SK-HEP-1 cells; Conc. of Hcy 100.000, NACCbl 30 μM, NAC 75 μM): 1.678 and 1.592 and 1.694 and 1.773 and 1.732 and 1.639
Absorbance at 490 nm (SK-HEP-1 cells; Conc. of Hcy 200.000, NACCbl 30 μM, NAC 75 μM): 1.378 and 1.167 and 1.330 and 1.456 and 1.491 and 1.537
Protection against homocysteine-induced damage compared with free thiols (SK-HEP-1 cells; Hcy 30 μM, NAC 45 μM, GSH 100 μM, NACCbl 12.5 μM, GSCbl 15 μM): superior to the free thiols
Prevention of cell death compared with NAC and cyanocobalamin + NAC (SK-HEP-1 cells; NACCbl 30 μM, variable Hcy): superior to either NAC (75 μM) alone or in combination with CNCbl
Absorbance at 490 nm, Mean (SK-HEP-1 cells; SK-HEP-1, NACCbl 30 μM, NAC 75 μM, Hcy conc. 200.000, n = 6, label Hcy = Hcy alone): 1.393
Mean (FIG. 14, protection of SK-HEP-1 cells from Hcy) (SK-HEP-1 cells; [Hcy] 30 μM, [NAC] = 45 μM, [NACCbl] = 12.5 μM, [Folate] = 25 μM where named in the label, label Hcy/HCy = Hcy alone): 1.696
Mean (FIG. 14a, protection of SK-HEP-1 cells from Hcy in the presence of folate) (SK-HEP-1 cells; [Hcy] 30 μM, folate 25 μM present, [GSCbl] = 15 μM, [NACCbl] = 12.5 μM, [CNCbl] = 15 μM, [MeCbl] = 12.5 μM, [HOCbl] = 17.5 μM, [NAC] = 45 μM, [GSH] = 100 μM): 2.661
Absorbance at 490 nm, Mean (SK-HEP-1 cells; as E80, Hcy conc. 0.000): 2.761
Absorbance at 490 nm, Mean (SK-HEP-1 cells; as E80, Hcy conc. 1.780): 2.673
Absorbance at 490 nm, Mean (SK-HEP-1 cells; as E80, Hcy conc. 3.125): 2.404
Absorbance at 490 nm, Mean (SK-HEP-1 cells; as E80, Hcy conc. 6.250): 2.273
Absorbance at 490 nm, Mean (SK-HEP-1 cells; as E80, Hcy conc. 12.500): 2.142
Absorbance at 490 nm, Mean (SK-HEP-1 cells; as E80, Hcy conc. 25.000): 1.954
Absorbance at 490 nm, Mean (SK-HEP-1 cells; as E80, Hcy conc. 50.000): 1.786
